Assays:
Carbonic anhydrase 9 = Carbonic anhydrase 9 (Homo sapiens, UniProt Q16790)
Carbonic anhydrase 12 = Carbonic anhydrase 12 (Homo sapiens, UniProt O43570)
Carbonic anhydrase 1 = Carbonic anhydrase 1 (Homo sapiens, UniProt P00915); test: Inhibition of recombinant human carbonic anhydrase 1 preincubated for 15 mins by stopped-flow CO2 hydrase Assay
Carbonic anhydrase 1, sequence (P00915 whole entry): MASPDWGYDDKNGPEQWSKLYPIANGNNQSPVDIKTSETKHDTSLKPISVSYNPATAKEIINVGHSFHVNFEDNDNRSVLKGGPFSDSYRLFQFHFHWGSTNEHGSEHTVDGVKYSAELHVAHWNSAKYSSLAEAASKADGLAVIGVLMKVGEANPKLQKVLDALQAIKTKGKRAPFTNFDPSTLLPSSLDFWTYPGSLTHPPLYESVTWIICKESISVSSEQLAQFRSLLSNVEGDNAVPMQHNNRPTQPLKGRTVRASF

Carbonic anhydrase 12, sequence (O43570 whole entry): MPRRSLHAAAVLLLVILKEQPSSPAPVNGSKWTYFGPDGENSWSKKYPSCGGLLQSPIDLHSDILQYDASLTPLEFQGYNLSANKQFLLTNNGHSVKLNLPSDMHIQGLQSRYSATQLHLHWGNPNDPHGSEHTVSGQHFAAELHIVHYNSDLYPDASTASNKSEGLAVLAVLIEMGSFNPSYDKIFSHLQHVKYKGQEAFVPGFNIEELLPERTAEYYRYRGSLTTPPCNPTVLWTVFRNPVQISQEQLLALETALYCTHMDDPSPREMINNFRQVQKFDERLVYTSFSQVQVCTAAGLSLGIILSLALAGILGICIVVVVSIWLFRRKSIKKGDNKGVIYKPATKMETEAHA

Compound | Ki (Carbonic anhydrase 9) | Ki (Carbonic anhydrase 12) | Ki (Carbonic anhydrase 1)
NS(=O)(=O)c1ccc(-n2cc(CCCCCl)nn2)cc1 | 5.4 nM |  | 
CC(C)(C)OC(=O)NCc1cn(-c2ccc(S(N)(=O)=O)cc2)nn1 | 10.5 nM |  | 
CCCCCc1ccc(-c2cn(-c3c(F)c(F)c(S(N)(=O)=O)c(F)c3F)nn2)cc1 | 38.9 nM |  | 
NS(=O)(=O)c1c(F)c(F)c(-n2cc(CCCCCl)nn2)c(F)c1F | 4.5 nM |  | 

Next, values leading:

Ki (Carbonic anhydrase 9) | Ki (Carbonic anhydrase 12) | Ki (Carbonic anhydrase 1) | Compound
5 nM |  |  | CCCCCc1ccc(-c2cn(-c3ccc(S(N)(=O)=O)cc3)nn2)cc1
6.9 nM |  |  | NS(=O)(=O)c1ccc(-n2cc(CCBr)nn2)cc1
6.2 nM |  |  | NS(=O)(=O)c1ccc(-n2cc(CCCCl)nn2)cc1
12.1 nM |  |  | NCc1cn(-c2ccc(S(N)(=O)=O)cc2)nn1
 | 3.6 nM | 368 nM | Cc1ccc(-c2cn(-c3ccc(S(N)(=O)=O)cc3)nn2)cc1
25.9 nM | 6 nM | 392 nM | NS(=O)(=O)c1ccc(-n2cc(-c3ccccc3)nn2)cc1
